Assay results reported in patent US10377718B2, “Apelin receptor (APJ) agonists and uses thereof” (Research Triangle Institute, priority 2014, dated 2019).

Each compound was assayed against T1, apelin receptor (APJ) (Homo sapiens, UniProt P35414) (assay: in vitro apelin agonist activity (methods of Giddings et al., Apelin-13 as positive control)). Settings: not given.
T1 sequence (P35414 1-380): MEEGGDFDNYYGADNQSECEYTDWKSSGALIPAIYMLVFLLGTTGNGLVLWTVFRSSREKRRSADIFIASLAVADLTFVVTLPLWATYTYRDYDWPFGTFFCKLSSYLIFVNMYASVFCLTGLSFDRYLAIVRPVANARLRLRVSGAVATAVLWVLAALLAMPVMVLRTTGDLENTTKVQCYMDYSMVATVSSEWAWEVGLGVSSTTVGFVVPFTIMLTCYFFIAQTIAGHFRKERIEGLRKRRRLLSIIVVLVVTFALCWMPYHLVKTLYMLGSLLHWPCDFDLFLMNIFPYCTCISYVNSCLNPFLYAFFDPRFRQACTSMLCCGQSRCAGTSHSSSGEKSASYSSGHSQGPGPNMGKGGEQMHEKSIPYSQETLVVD
Type: cell-based
From the text: The compounds above were studied for their in vitro activity as apelin agonists using the methods described by Giddings et al. Giddings et al., 2010 Int J High Thro Screen. 1:39-47, the contents of which are hereby incorporated by reference in its entirety.
Work on `COc1cccc(OC)c1-c1cc(C(=O)N[C@H](C(=O)O)C2CCCCC2)nn1CC(C)C` [compound 169, (S)-2-Cyclohexyl-2-(5-(2,6-dimethoxyphenyl)-1-isobutyl-1H-pyrazole-3-carboxamido)acetic acid] yielded an EC50 of under 10 µM.
Work on `COc1cccc(OC)c1-c1cc(C(=O)N[C@@H](CC2CCCCC2)C(=O)O)nn1CC(C)C` [compound 204] yielded an EC50 of under 10 µM.

Same assay, conditions: apelin agonist activity, Giddings et al. method; read-out: agonist activity (EC50)
`COc1cccc(OC)c1-c1cc(C(=O)N[C@H](CC(=O)NCC2CCCCC2)CC(C)C)nn1CC(C)C` [compound 155, (S)—N-(1-((Cyclohexylmethyl)amino)-5-methyl-1-oxohexan-3-yl)-5-(2,6-dimethoxyphenyl)-1-isobutyl-1H-pyrazole-3-carboxamide] showed an EC50 of under 10 µM.
With `CCCCCNC(=O)C[C@H](CC(C)C)NC(=O)c1cc(-c2c(OC)cccc2OC)n(CC(C)C)n1` [compound 156, (S)-5-(2,6-Dimethoxyphenyl)-1-isobutyl-N-(5-methyl-1-oxo-1-(pentylamino)hexan-3-yl)-1H-pyrazole-3-carboxamide] the EC50 was under 10 µM.
In the case of `CCCNC(=O)C[C@H](CC(C)C)NC(=O)c1cc(-c2c(OC)cccc2OC)n(CC(C)C)n1` [compound 157, (S)-5-(2,6-dimethoxyphenyl)-1-isobutyl-N-(5-methyl-1-oxo-1-(propylamino)hexan-3-yl)-1H-pyrazole-3-carboxamide], the EC50 is reported as under 10 µM.
In the case of `CCNC(=O)C[C@H](CC(C)C)NC(=O)c1cc(-c2c(OC)cccc2OC)n(CC(C)C)n1` [compound 161, (S)-5-(2,6-Dimethoxyphenyl)-N-(1-(ethylamino)-5-methyl-1-oxohexan-3-yl)-1-isobutyl-1H-pyrazole-3-carboxamide], the EC50 is reported as under 10 µM.
With `COc1cccc(OC)c1-c1cc(C(=O)N[C@H](CC(=O)NC(C)C)CC(C)C)nn1CC(C)C` [compound 162] the EC50 was under 10 µM.
With `COc1cccc(OC)c1-c1cc(C(=O)N[C@H](CC(=O)Nc2ccc(F)cc2)CC(C)C)nn1CC(C)C` [compound 163, (S)-5-(2,6-Dimethoxyphenyl)-N-(1-((4-fluorophenyl)amino)-5-methyl-1-oxohexan-3-yl)-1-isobutyl-1H-pyrazole-3-carboxamide] the EC50 was under 10 µM.
In the case of `COC(=O)C[C@H](CC(C)C)NC(=O)c1cc(-c2c(OC)cccc2OC)n(CC(C)C)n1` [compound 164], the EC50 is reported as under 10 µM.
Work on `COc1c(F)cc(F)c(OC)c1-c1cc(C(=O)N[C@H](CC(=O)O)CC(C)C)nn1CC(C)C` [compound 167] yielded an EC50 of under 10 µM.
Compound `CCCCNC(=O)C[C@H](CC(C)C)NC(=O)c1cc(-c2c(OC)c(F)cc(F)c2OC)n(CC(C)C)n1` [compound 168] has an EC50 of under 10 µM.
`CCCN(C)C(=O)C[C@H](CC(C)C)NC(=O)c1cc(-c2c(OC)cccc2OC)n(CC(C)C)n1` [compound 171] showed an EC50 of under 10 µM.
With `COc1cccc(OC)c1-c1cc(C(=O)N[C@H](CC(=O)NC2CC2)CC(C)C)nn1CC(C)C` [compound 172] the EC50 was under 10 µM.
With `COc1cccc(OC)c1-c1cc(C(=O)N[C@H](CC(=O)NCC(=O)O)CC(C)C)nn1CC(C)C` [compound 174] the EC50 was under 10 µM.
`COc1cccc(OC)c1-c1cc(C(=O)N[C@H](CC(=O)NCC(N)=O)CC(C)C)nn1CC(C)C` [compound 175] was tested, and the EC50 was under 10 µM.
In the case of `CNC(=O)CNC(=O)C[C@H](CC(C)C)NC(=O)c1cc(-c2c(OC)cccc2OC)n(CC(C)C)n1` [compound 176], the EC50 is reported as under 10 µM.
`COc1cccc(OC)c1-c1cc(C(=O)N[C@H](CC(=O)O)CC(C)C)nn1CC1CC1` [compound 181] gave an EC50 of under 10 µM.
Work on `COc1cccc(OC)c1-c1cc(C(=O)N[C@H](CC(=O)O)CC(C)C)nn1C1CCCC1` [compound 182] yielded an EC50 of under 10 µM.
Work on `COC(=O)CNC(=O)C[C@H](CC(C)C)NC(=O)c1cc(-c2c(OC)cccc2OC)n(CC2CC2)n1` [compound 183] yielded an EC50 of under 10 µM.
`COC(=O)CNC(=O)C[C@H](CC(C)C)NC(=O)c1cc(-c2c(OC)cccc2OC)n(C2CCCC2)n1` [compound 184] showed an EC50 of under 10 µM.
`COc1cccc(OC)c1-c1cc(C(=O)N[C@H](CC(=O)NC2CCCC2)CC(C)C)nn1CC(C)C` [compound 185] gave an EC50 of under 10 µM.
Work on `CCCn1nc(C(=O)N[C@H](CC(=O)NCC(=O)OC)CC(C)C)cc1-c1c(OC)cccc1OC` [compound 186] yielded an EC50 of under 10 µM.
In the case of `COC(=O)CNC(=O)C[C@H](CC(C)C)NC(=O)c1cc(-c2c(OC)cccc2OC)n(CC(C)(C)C)n1` [compound 187], the EC50 is reported as under 10 µM.
In the case of `COC(=O)CNC(=O)[C@H](CC(C)C)NC(=O)c1cc(-c2c(OC)cccc2OC)n(CC(C)C)n1` [compound 188], the EC50 is reported as under 10 µM.
`COC(=O)CNC(=O)[C@H](CC(C)C)NC(=O)c1cc(-c2c(OC)cccc2OC)n(C2CCCCC2)n1` [compound 189] was tested, and the EC50 was under 10 µM.
For `CCOC(=O)CCNC(=O)[C@H](CC(C)C)NC(=O)c1cc(-c2c(OC)cccc2OC)n(CC(C)C)n1` [compound 191], the EC50 was under 10 µM.
`COC(=O)CNC(=O)[C@H](CC1CCCCC1)NC(=O)c1cc(-c2c(OC)cccc2OC)n(CC(C)C)n1` [compound 198] gave an EC50 of under 10 µM.
For `COC(=O)CNC(=O)[C@H](Cc1ccccc1)NC(=O)c1cc(-c2c(OC)cccc2OC)n(CC(C)C)n1` [compound 205], the EC50 was under 10 µM.
`CCCC[C@H](NC(=O)c1cc(-c2c(OC)cccc2OC)n(CC(C)C)n1)C(=O)NCC(=O)OC` [compound 212] was tested, and the EC50 was under 10 µM.
`COC(=O)CNC(=O)[C@H](CC1CCCCC1)NC(=O)c1cc(-c2cc(OC)ccc2OC)n(CC(C)C)n1` [compound 217] showed an EC50 of under 10 µM.
Compound `COC(=O)CN(C)C(=O)C[C@H](CC(C)C)NC(=O)c1cc(-c2c(OC)cccc2OC)n(CC(C)C)n1` [compound 218] has an EC50 of under 10 µM.
Work on `COC(=O)CN(C)C(=O)[C@H](CC(C)C)NC(=O)c1cc(-c2c(OC)cccc2OC)n(CC(C)C)n1` [compound 219] yielded an EC50 of under 10 µM.
In the case of `CCCNC(=O)[C@H](CCc1ccccc1)NC(=O)c1cc(-c2c(OC)cccc2OC)n(CC(C)C)n1` [compound 225], the EC50 is reported as under 10 µM.
Work on `COc1cccc(OC)c1-c1cc(C(=O)N[C@@H](CCc2ccccc2)C(=O)N2CCCC2)nn1CC(C)C` [compound 226] yielded an EC50 of under 10 µM.
Work on `COC(=O)CNC(=O)C[C@H](CC(C)C)N(C)C(=O)c1cc(-c2c(OC)cccc2OC)n(CC(C)C)n1` [compound 238] yielded an EC50 of under 10 µM.
For `COC(=O)CNC(=O)C[C@H](CCCC1CCCCC1)NC(=O)c1cc(-c2c(OC)cccc2OC)n(CC(C)C)n1` [compound 242], the EC50 was under 10 µM.
`CCC(O)CNC(=O)C[C@H](CCN1CCCCC1)NC(=O)c1cc(-c2c(OC)cccc2OC)n(CC(C)C)n1` (stereo partly drawn) [compound 245] showed an EC50 of under 10 µM.
With `COc1cccc(OC)c1-c1cc(C(=O)N[C@@H](CCN2CCCCC2)CC(=O)NC2CCC2)nn1CC(C)C` [compound 247] the EC50 was under 10 µM.
With `COCCNC(=O)C[C@H](CCN1CCCCC1)NC(=O)c1cc(-c2c(OC)cccc2OC)n(CC(C)C)n1` [compound 249] the EC50 was under 10 µM.
`COc1cccc(OC)c1-c1cc(C(=O)N[C@@H](CCN2CCCCC2)CC(=O)O)nn1CC(C)C` [compound 251] showed an EC50 of under 10 µM.
`COCCN(C)C(=O)[C@H](CCC1CCCCC1)NC(=O)c1cc(-c2c(OC)cccc2OC)n(CC(C)C)n1` [compound 256] was tested, and the EC50 was under 10 µM.
For `COc1cccc(OC)c1-c1cc(C(=O)NC(CC(=O)O)C2CCCCC2)nn1-c1ccc(F)cc1` (stereo not drawn) [compound 257], the EC50 was under 10 µM.
Work on `COC(=O)CNC(=O)CC(NC(=O)c1cc(-c2c(OC)cccc2OC)n(-c2ccc(F)cc2)n1)C1CCCCC1` (stereo not drawn) [compound 258] yielded an EC50 of under 10 µM.
`C=C[C@@H](CC(=O)NC1CCC1)NC(=O)c1cc(-c2c(OC)cccc2OC)n(C2CCCC2)n1` [compound 263] showed an EC50 of under 10 µM.

Same assay, conditions: mean based on three runs; read-out: mean activity (EC50)
For `COC(=O)CNC(=O)[C@H](CC1CCCCC1)NC(=O)c1cc(-c2c(OC)cccc2OC)n(CC(C)C)n1` [compound 198], the EC50 was 0.053 µM.
